From patent US20130274185A1, “Pharmaceutical for Pseudo-Exercise Therapy” (THE UNIVERSITY OF TOKYO, priority 2010, published 2013)

Experiments:
AMPK = AMPK phosphorylation in C2C12 myocytes; type: cell-based, mouse; details: C2C12; for effect on adiponectin-induced increased AMPK phosphorylation: preincubation 5 mM EGTA 20 min, 50 μM BAPTA-AM 30 min or 10 μM U73122 30 min, then adiponectin 30 μg/ml 5 min
Procedure: (§1) The mouse C2C12 myoblasts were grown in 90% Dulbecco's modified high glucose Eagle's medium containing 10% (v/v) fetal bovine serum. When the cells reached 80% confluent, the myoblasts were induced to differentiate into myocytes by replacing the medium with a low serum differentiation medium (98% Dulbecco's modified high glucose Eagle's medium, 2.5% (v/v) horse serum). The medium was changed daily. The C2C12 cells were transfected by using Pofectamine 2000 (Invitrogen) and following the manufacturer's instructions.

C2C12 myocytes [1] = experiment: Mitochondrial content assay in C2C12 myocytes; type: cell-based, mouse; details: C2C12; preincubation AraA 0.5 mM 1 hr or STO-609 1 μg/ml 6 hr, then 10 μg/ml adiponectin 48 hr
Procedure: as §1
Mitochondrial content assays were carried out as described in the following document (Cell Metab. 4, 75-87 (2006)), with slight modifications. Quantification of the mitochondrial content was conducted by using mtDNA and MitoTracker Green probe (Molecular Probes) according to the method as described in the following document (Obes. Res. 13, 574-581 (2005)). MitoTracker Green probe preferentially accumulates in mitochondria regardless of the mitochondrial membrane potential and provides an accurate assessment of mitochondrial mass. Cells were washed with PBS and after addition of 100 nM MitoTracker Green FM (Molecular Probes), incubated at 37° C. for 30 min. Cells were harvested by using trypsin/EDTA and resuspended in PBS. Fluorescence intensity was detected with excitation and emission wavelengths of 490 and 516 nm, respectively, and the values thus measured were corrected for total protein (mg/ml).

PGC-1α (Ppargc1a) = PGC-1α (Ppargc1a) expression in C2C12 myocytes; type: cell-based, mouse; details: C2C12; preincubation AraA 0.5 mM 1 hr, STO-609 1 μg/ml 6 hr or EGTA 5 mM 20 min, then adiponectin 10 μg/ml 1.5 hr
Procedure: Real-time PCR was carried out according to the method described in the following documents (Nature Med. 13, 332-339 2007); Nature 423, 762-769 (2003); J. Biol. Chem. 281, 8748-8755 (2006)). Total RNA was prepared from cells or tissues by using Trizol (Invitrogen) according to the manufacturer's instructions. Quantification of mRNA was conducted using a real-time PCR method (Nature 423, 762-769 (2003)) with slight modifications. The procedures used for immunoblotting are described in the following documents (Nature Med. 7, 941-946 (2001); J. Biol. Chem. 281, 26602-26614 (2006); J. Biol. Chem. 281, 8748-8755 (2006)). The livers or muscles were freeze-clamped in liquid nitrogen in situ (Nature Med. 7, 941-946 (2001); J. Biol. Chem. 281, 26602-26614 (2006); J. Biol. Chem. 281, 8748-8755 (2006)).
as §1

CaMKI = CaMKI phosphorylation in C2C12 myocytes; type: cell-based, mouse; details: EGTA 5 mM
Procedure: as §1

AdipoR1 = molecular target: T1, AdipoR1 (Mus musculus, UniProt Q91VH1); experiment: Electrophysiological recording in Xenopus oocytes expressing AdipoR1; type: cell-based; details: oocytes expressing AdipoR1, 5 mM EGTA
T1 construct: expressed in transfected cells; host or cells: Xenopus oocytes (stage V to VII), cRNA synthesized from linearized modified pSPUTK
T1 sequence (Q91VH1 1-375): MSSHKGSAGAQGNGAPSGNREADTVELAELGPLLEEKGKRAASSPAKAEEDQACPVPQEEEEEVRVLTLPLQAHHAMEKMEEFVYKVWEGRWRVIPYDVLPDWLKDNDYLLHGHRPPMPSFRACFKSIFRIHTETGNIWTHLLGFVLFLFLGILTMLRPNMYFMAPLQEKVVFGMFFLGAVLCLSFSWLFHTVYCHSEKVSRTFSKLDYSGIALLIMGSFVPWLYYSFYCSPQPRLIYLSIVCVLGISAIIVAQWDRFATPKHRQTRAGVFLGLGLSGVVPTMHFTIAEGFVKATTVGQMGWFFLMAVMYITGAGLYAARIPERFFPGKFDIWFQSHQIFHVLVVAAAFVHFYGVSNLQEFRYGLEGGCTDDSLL
Procedure: Stage V to VII oocytes were treated with 2 mg/ml of collagenase S-1 (Nitta gelatin) in calcium ion-free saline solution (82.5 mM NaCl, 2 mM KCl, 1 mM MgCl2, and 5 mM HEPES, pH 7.5) for 1 to 2 hr at room temperature. The resulting oocytes were then microinjected with 50 ng of cRNA for mAdipoR1. The cRNA was synthesized from linearized modified pSPUTK. The injected oocytes were incubated for 3 days at 18° C. in a bath solution (88 mM NaCl, 1 mM KCl, 0.3 mM Ca(NO3)2, 0.4 mM CaCl2, 0.8 mM MgSO4, 2.4 mM […], 15 mM HEPES, pH 7.6) supplemented with 10 μg/ml of penicillin and streptomycin.
Whole cell currents were recorded with a two-electrode voltage clamp technique. Intracellular glass electrodes were filled with 3M KCl. Signals were amplified with an OC-725C amplifier (Warner Instruments), low-pass filtered at 50 Hz, and digitized at 1 kHz. A control bath solution contained 115 mM NaCl, 2.5 mM KCl, 1.8 mM CaCl2, and 10 mM HEPES. It was titrated to pH 7.2 with NaOH. A calcium ion free solution containing 1.8 mM BaCl2 instead of CaCl2 was used. The inward current was monitored at a holding potential of −80 mV. Calcium ion activated Cl^− current was monitored by applying 500-mscc depolarizing pulses of +100 mV and +50 mV from the holding potential of −80 mV. Adiponectin was supplied to the superfusing bath solution via a silicon tube connected to computer-driven solenoid valves. Data acquisition and analysis were carried out using Digidata 1322A and pCLAMP software.

C2C12 myocytes [2] = experiment: Calcium imaging in C2C12 myocytes (fura-2); type: cell-based, mouse
Procedure: C212 myocytes cultured on glass base dishes (IWAKI) were treated with 2.5 μM fura-2/AM for 30 min. Fluorescence was measured with an Aquacosmos Calcium Imaging system (Hamamatsu Photonics). Ligands were delivered through the superfusing Ringer's solution (140 mM NaCl, 5.6 mM KCl, 5 mM HEPES, 2.0 mM sodium pyruvate, 1.25 mM KH2PO4, 2.0 mM CaCl2, 2.0 mM MgCl2, 9.4 mM D-glucose (pH 7.4)). For the calcium chelating experiment, EGTA solution (140 mM NaCl, 5.6 mM KCl, 5 mM HEPES, 2.0 mM sodium pyruvate, 1.25 mM KH2PO4, 2.0 mM MgCl2, 5.0 mM EGTA-2Na, 9.4 mM D-glucose (pH 7.4) was used for the bath solution. Fura-2 fluorescence ratios were calibrated to calcium ion signals.

muscle-R1KO mice [3] = experiment: Treatment of muscle-R1KO mice with AICAR, resveratrol or MnTBAP; type: in vivo; details: AICAR 500 mg per kg body weight, 2 hours
Procedure: Mitochondrial content assays were carried out as described in the following document (Cell Metab. 4, 75-87 (2006)), with slight modifications. Quantification of the mitochondrial content was conducted by using mtDNA and MitoTracker Green probe (Molecular Probes) according to the method as described in the following document (Obes. Res. 13, 574-581 (2005)). MitoTracker Green probe preferentially accumulates in mitochondria regardless of the mitochondrial membrane potential and provides an accurate assessment of mitochondrial mass. Cells were washed with PBS and after addition of 100 nM MitoTracker Green FM (Molecular Probes), incubated at 37° C. for 30 min. […] Fluorescence intensity was detected with excitation and emission wavelengths of 490 and 516 nm, respectively, and the values thus measured were corrected for total protein (mg/ml).
Oral glucose tolerance test (OGTT) and insulin tolerance test (ITT) were conducted by the method described in the following documents (Nature Med. 8, 1288-1295 (2002); Nature Med. 7, 941-946 (2001)), with some modifications. The areas of the glucose and insulin curves were calculated, respectively, by multiplying the cumulative mean height of the glucose values (1 mg/ml=1 cm) and insulin values (1 ng/ml=1 cm) by time (60 min=1 cm) (Nature Med. 13, 332-339 (2007); Nature Med. 7, 941-946 (2001)). […]

muscle-R1KO mice [4] = experiment: Increased calcium influx experiment (Bay-K 8644 hydrogel) in muscle-R1KO mice; type: in vivo; details: 0.25 μM Bay-K 8644

In the case of `COc1ccc2c(c1)CC[C@@H]1[C@@H]2CC[C@]2(C)[C@@H](NCCCCCCN3C(=O)C=CC3=O)CC[C@@H]12` [U73122], the “effect on adiponectin-induced increased AMPK phosphorylation” value (AMPK) is reported as “had little effect”.
With `Nc1ncnc2c1ncn2[C@@H]1O[C@H](CO)[C@@H](O)[C@@H]1O` [AraA, reference compound] the “effect on the adiponectin-induced increase in mitochondrial biogenesis” value (C2C12 myocytes [1]) was “almost completely abolished” and the “effect on PGC-1α expression induced by adiponectin” value (“effect on PGC-1α expression induced” for short) (PGC-1α (Ppargc1a)) was “only tended to decrease”.
With `O=C(O)CN(CCOCCOCCN(CC(=O)O)CC(=O)O)CC(=O)O` [EGTA, reference compound] the “effect on phosphorylation of AMPK induced by AICAR” value (AMPK; 5 mM EGTA, AICAR 1 mM 1 hr) was “had no effect”, the “effect on ionomycin-dependent phosphorylation of AMPK” value (AMPK; 5 mM EGTA, ionomycin 1 μM 5 min) was “almost completely abolished” and the “effect on adiponectin-induced increased AMPK phosphorylation” value (AMPK) was “partially suppressed”. The “effect on PGC-1α expression induced” value (PGC-1α (Ppargc1a)) was “effectively and almost completely abolished”, the “effect on increased CaMKI phosphorylation stimulated with adiponectin” value (CaMKI) was “almost completely abolished” and the “effect on adiponectin-induced inward current responses” value (AdipoR1) was “almost completely abolishes”. The “effect on calcium-ion activated Cl- current responses to adiponectin” value (AdipoR1) was “almost completely abolished”, the “effect on adiponectin-induced calcium ion response” value (C2C12 myocytes [2]; 5 mM EGTA) was “almost completely abolished” and the “effect on ATP-induced intracellular calcium ion release” value (C2C12 myocytes [2]; EGTA) was “had no effect”.
`O=C(O)c1ccc2c3c1cccc3c(=O)n1c3ccccc3nc21` [STO-609, reference compound] was tested, and the “effect on the adiponectin-induced increase in mitochondrial biogenesis” value (C2C12 myocytes [1]) was “almost completely abolished” and the “effect on PGC-1α expression induced” value (PGC-1α (Ppargc1a)) was “effectively and almost completely abolished”.
`NC(=O)c1ncn([C@@H]2O[C@H](CO)[C@@H](O)[C@H]2O)c1N` [AICAR, 5-aminoimidazole-4-carboxamide-1-β-D-libocide] was tested, and the “phosphorylation of AMPK in muscle” value (muscle-R1KO mice [3]) was “significantly increased”.
For `CC(=O)OCOC(=O)CN(CC(=O)OCOC(C)=O)c1ccccc1OCCOc1ccccc1N(CC(=O)OCOC(C)=O)CC(=O)OCOC(C)=O` [BAPTA-AM, Bis-(o-aminophenoxy)ethane-N,N,N9,N9-tetra-acetic acid, tetraacetoxymethyl ester], the “effect on adiponectin-induced increased AMPK phosphorylation” value (AMPK) was “partially suppressed”.
For `COC(=O)C1=C(C)NC(C)=C([N+](=O)[O-])C1c1ccccc1C(F)(F)F` (centres unmarked) [Bay-K 8644], the “CaMKKβ activity (phosphorylation of CaMKI) in skeletal muscle” value (muscle-R1KO mice [4]) was “increase in CaMKKβ activity”.
